Test system: bladder cancer
Assay: Administration of Compound A to human patient suffering from bladder cancer (CT imaging)
Format: in vivo
Details: 450 mg orally two times per day for two months

CC(C)(C[C@H]1CN(S(=O)(=O)c2cccc(C(F)(F)F)c2)c2cc(-c3cc(F)cc(OC(F)F)c3)ccc2O1)C(=O)O [Compound A]
reduction in bladder cancer burden compared to burden at start of treatment: 24%
